The values that follow come from patent US20240218022A1, “ANTI-VISTA MACROCYCLIC PEPTIDES AND COMPOSITIONS” (BRISTOL-MYERS SQUIBB COMPANY, priority 2022, published 2024).

pIC50: −log10 of the molar value. Positions of bridges follow the written chain, without caps; N, C: chain ends. Non-standard residues stand in square brackets, D forms with d. Residues, ends and D or L forms follow the SMILES beside them. NMeW = CN[C@@H](Cc1c[nH]c2ccccc12)C(=O)O; NMeY = CN[C@@H](Cc1ccc(O)cc1)C(=O)O; Tic = O=C(O)[C@@H]1Cc2ccccc2CN1; Cit = NC(=O)NCCC[C@H](N)C(=O)O; Ahp(2) = CCCCC[C@H](N)C(=O)O; NMeNle = CCCC[C@H](NC)C(=O)O; Tle = CC(C)(C)[C@H](N)C(=O)O; NMeV = CN[C@H](C(=O)O)C(C)C; NMeS = CN[C@@H](CO)C(=O)O; NHexGly = CCCCCCNCC(=O)O; Nle = CCCC[C@H](N)C(=O)O; Orn = NCCC[C@H](N)C(=O)O

The assay deals with T1, mouse VISTA (mVISTA) (Mus musculus, UniProt Q9D659).
T1 construct: expressed in transfected cells; host or cells: Human embryonic kidney 293T cells
T1 sequence (Q9D659 33-308): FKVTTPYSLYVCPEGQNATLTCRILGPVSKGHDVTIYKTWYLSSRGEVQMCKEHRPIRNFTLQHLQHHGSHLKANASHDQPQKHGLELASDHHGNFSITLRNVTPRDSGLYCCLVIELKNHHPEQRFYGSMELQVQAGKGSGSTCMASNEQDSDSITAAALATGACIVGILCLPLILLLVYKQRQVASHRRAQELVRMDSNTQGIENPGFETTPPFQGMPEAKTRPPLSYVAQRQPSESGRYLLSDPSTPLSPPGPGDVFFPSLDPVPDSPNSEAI
The experiment in a line: Cell-Based Binding High-Content Assay For mVISTA (HC CBA mVISTA). The note with it: read-out: HC CBA mVISTA IC50. In short, it runs like this: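 Competition of compound with a biotinylated peptide (final 2 nM, 30 min at RT) for binding to mVISTA on 293T cells, run under no-wash or wash (1 h compound preincubation then removal) formats. Readout by Alexa 647–streptavidin imaging on a high-content platform; four-parameter logistic fit gave IC50.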
For the compound `CCCCCCN1CC(=O)N[C@@H](Cc2ccc(O)cc2)C(=O)N[C@@H](CCCC)C(=O)N[C@@H](CC(=O)O)C(=O)N[C@@H](CCCNC(=N)N)C(=O)N(C)[C@@H](CCCC)C(=O)N[C@@H](CCCCC)C(=O)N2CCC[C@H]2C(=O)N[C@@H](C(C)(C)C)C(=O)N[C@@H](CC(=O)O)C(=O)N[C@H](C(=O)N[C@@H](CC(N)=O)C(=O)O)CSCC(=O)N[C@@H](Cc2ccccc2)C(=O)N[C@@H](Cc2c[nH]c3ccccc23)C(=O)N[C@@H](CC(=O)O)C1=O` [Example 1403] ({CH2CO}-FWD[NHexGly]Y[Nle]DR[NMeNle][Ahp(2)]P[Tle]DCN-OH; thioether N-14), the pIC50 is 7.49.
For the compound `CCCCCCN1CC(=O)N[C@@H](Cc2ccc(O)cc2)C(=O)N[C@@H](CCCC)C(=O)N[C@@H](CC(N)=O)C(=O)N[C@@H](CCCN)C(=O)N(C)[C@@H](CCCC)C(=O)N[C@@H](CCCCC)C(=O)N2CCC[C@H]2C(=O)N[C@@H](C(C)(C)C)C(=O)N[C@@H](CC(=O)O)C(=O)N[C@H](C(=O)N[C@@H](CC(N)=O)C(=O)O)CSCC(=O)N[C@@H](Cc2ccccc2)C(=O)N[C@@H](Cc2c[nH]c3ccccc23)C(=O)N[C@@H](CC(=O)O)C1=O` [Example 1404] ({CH2CO}-FWD[NHexGly]Y[Nle]N[Orn][NMeNle][Ahp(2)]P[Tle]DCN-OH; thioether N-14), the negative-log IC50 (pIC50) was 7.80.
Regarding `CCCCCCN1CC(=O)N[C@@H](Cc2ccc(O)cc2)C(=O)N[C@@H](CCCCC)C(=O)N[C@@H](CC(N)=O)C(=O)N[C@@H](CCCNC(=N)N)C(=O)N(C)[C@@H](CCCC)C(=O)N[C@@H](CCCCC)C(=O)N2CCC[C@H]2C(=O)N[C@@H](C(C)C)C(=O)N[C@@H](CC(=O)O)C(=O)N[C@H](C(=O)N[C@@H](CO)C(N)=O)CSCC(=O)N[C@@H](Cc2ccccc2)C(=O)N[C@@H](Cc2c[nH]c3ccccc23)C(=O)N[C@@H](CC(=O)O)C1=O` [Example 1405] ({CH2CO}-FWD[NHexGly]Y[Ahp(2)]NR[NMeNle][Ahp(2)]PVDCS-NH2; thioether N-14), the negative logarithm of the IC50 (pIC50) was 8.30.
Turning to `CCCCCCN1CC(=O)N[C@@H](Cc2ccc(O)cc2)C(=O)N[C@@H](CCCC)C(=O)N[C@@H](CC(N)=O)C(=O)N[C@@H](CCCNC(=N)N)C(=O)N(C)[C@@H](CCCC)C(=O)N[C@@H](CCCCC)C(=O)N2CCC[C@H]2C(=O)N[C@@H](C(C)C)C(=O)N[C@@H](CC(=O)O)C(=O)N[C@H](C(=O)N[C@@H](CO)C(=O)O)CSCC(=O)N[C@@H](Cc2ccccc2)C(=O)N[C@@H](Cc2c[nH]c3ccccc23)C(=O)N[C@@H](CC(=O)O)C1=O` [Example 1406] ({CH2CO}-FWD[NHexGly]Y[Nle]NR[NMeNle][Ahp(2)]PVDCS-OH; thioether N-14), the pIC50 was 8.19.
To `CCCCCCN1CC(=O)N[C@@H](Cc2ccc(O)cc2)C(=O)N[C@@H](CCCC)C(=O)N[C@@H](CC(=O)O)C(=O)N[C@@H](CCCNC(=N)N)C(=O)N(C)[C@@H](CCCC)C(=O)N[C@@H](CCCCC)C(=O)N2CCC[C@H]2C(=O)N[C@@H](C(C)C)C(=O)N[C@@H](CC(=O)O)C(=O)N[C@H](C(=O)N[C@@H](CO)C(N)=O)CSCC(=O)N[C@@H](Cc2ccccc2)C(=O)N[C@@H](Cc2c[nH]c3ccccc23)C(=O)N[C@@H](CC(=O)O)C1=O` [Example 1407] ({CH2CO}-FWD[NHexGly]Y[Nle]DR[NMeNle][Ahp(2)]PVDCS-NH2; thioether N-14) belongs 7.46; to `CCCCCCN1CC(=O)N[C@@H](Cc2ccc(O)cc2)C(=O)N[C@@H](CCCC)C(=O)N[C@@H](CC(N)=O)C(=O)N[C@@H](CCCNC(=N)N)C(=O)N(C)[C@@H](CO)C(=O)N[C@@H](CCCCC)C(=O)N2CCC[C@H]2C(=O)N[C@@H](C(C)C)C(=O)N[C@@H](CC(=O)O)C(=O)N[C@H](C(=O)NCC(=O)O)CSCC(=O)N[C@@H](Cc2ccccc2)C(=O)N[C@@H](Cc2c[nH]c3ccccc23)C(=O)N[C@@H](CC(=O)O)C1=O` [Example 1408] ({CH2CO}-FWD[NHexGly]Y[Nle]NR[NMeS][Ahp(2)]PVDCG-OH; thioether N-14), 7.68; to `CCCCCCN1CC(=O)N[C@@H](Cc2ccc(O)cc2)C(=O)N[C@@H](CCCC)C(=O)N[C@@H](CC(N)=O)C(=O)N[C@@H](CCCNC(=N)N)C(=O)N(C)[C@@H](C(C)C)C(=O)N[C@@H](CCCCC)C(=O)N2CCC[C@H]2C(=O)N[C@@H](C(C)C)C(=O)N[C@@H](CC(=O)O)C(=O)N[C@H](C(=O)NCC(=O)O)CSCC(=O)N[C@@H](Cc2ccccc2)C(=O)N[C@@H](Cc2c[nH]c3ccccc23)C(=O)N[C@@H](CC(=O)O)C1=O` [Example 1409] ({CH2CO}-FWD[NHexGly]Y[Nle]NR[NMeV][Ahp(2)]PVDCG-OH; thioether N-14), 7.90.
The figure for `CCCCCCN1CC(=O)N[C@@H](Cc2ccc(O)cc2)C(=O)N[C@@H](CCCC)C(=O)N[C@@H](CC(N)=O)C(=O)N[C@@H](CCCNC(=N)N)C(=O)N(C)[C@@H](Cc2c[nH]c3ccccc23)C(=O)N[C@@H](CCCCC)C(=O)N2CCC[C@H]2C(=O)N[C@@H](C(C)C)C(=O)N[C@@H](CC(=O)O)C(=O)N[C@H](C(=O)NCC(=O)O)CSCC(=O)N[C@@H](Cc2ccccc2)C(=O)N[C@@H](Cc2c[nH]c3ccccc23)C(=O)N[C@@H](CC(=O)O)C1=O` [Example 1410] ({CH2CO}-FWD[NHexGly]Y[Nle]NR[NMeW][Ahp(2)]PVDCG-OH; thioether N-14) is 8.28; for `CCCCCCN1CC(=O)N[C@@H](Cc2ccc(O)cc2)C(=O)N[C@@H](CCCC)C(=O)N[C@@H](CC(N)=O)C(=O)N[C@@H](CCCNC(=N)N)C(=O)N(C)[C@@H](Cc2ccc(O)cc2)C(=O)N[C@@H](CCCCC)C(=O)N2CCC[C@H]2C(=O)N[C@@H](C(C)C)C(=O)N[C@@H](CC(=O)O)C(=O)N[C@H](C(=O)NCC(=O)O)CSCC(=O)N[C@@H](Cc2ccccc2)C(=O)N[C@@H](Cc2c[nH]c3ccccc23)C(=O)N[C@@H](CC(=O)O)C1=O` [Example 1411] ({CH2CO}-FWD[NHexGly]Y[Nle]NR[NMeY][Ahp(2)]PVDCG-OH; thioether N-14) it is 7.73; for `CCCCCCN1CC(=O)N[C@@H](Cc2ccc(O)cc2)C(=O)N[C@@H](CCCC)C(=O)N[C@@H](CC(N)=O)C(=O)N[C@@H](CCCNC(N)=O)C(=O)N2Cc3ccccc3C[C@H]2C(=O)N[C@@H](CCCCC)C(=O)N2CCC[C@H]2C(=O)N[C@@H](C(C)C)C(=O)N[C@@H](CC(=O)O)C(=O)N[C@H](C(=O)NCC(N)=O)CSCC(=O)N[C@@H](Cc2ccccc2)C(=O)N[C@@H](Cc2c[nH]c3ccccc23)C(=O)N[C@@H](CC(=O)O)C1=O` [Example 1412] ({CH2CO}-FWD[NHexGly]Y[Nle]N[Cit][Tic][Ahp(2)]PVDCG-NH2; thioether N-14) it is 7.88.
For the compound `CCCCCCN1CC(=O)N[C@@H](Cc2ccc(O)cc2)C(=O)N[C@@H](CCCC)C(=O)N[C@@H](CC(N)=O)C(=O)N[C@@H](CCCNC(N)=O)C(=O)N2Cc3ccccc3C[C@H]2C(=O)N[C@@H](CCCCC)C(=O)N2CCC[C@H]2C(=O)N[C@@H](C(C)C)C(=O)N[C@@H](CO)C(=O)N[C@H](C(=O)NCC(N)=O)CSCC(=O)N[C@@H](Cc2ccccc2)C(=O)N[C@@H](Cc2c[nH]c3ccccc23)C(=O)N[C@@H](CC(=O)O)C1=O` [Example 1413] ({CH2CO}-FWD[NHexGly]Y[Nle]N[Cit][Tic][Ahp(2)]PVSCG-NH2; thioether N-14), the pIC50 is 7.72.
In the case of `CCCCCCN1CC(=O)N[C@@H](Cc2ccc(O)cc2)C(=O)N[C@@H](CCCC)C(=O)N[C@@H](CC(N)=O)C(=O)N[C@@H](CCCNC(=N)N)C(=O)N2Cc3ccccc3C[C@H]2C(=O)N[C@@H](CCCCC)C(=O)N2CCC[C@H]2C(=O)N[C@@H](C(C)C)C(=O)N[C@@H](CC(=O)O)C(=O)N[C@H](C(=O)NCC(N)=O)CSCC(=O)N[C@@H](Cc2ccccc2)C(=O)N[C@@H](Cc2c[nH]c3ccccc23)C(=O)N[C@@H](CC(=O)O)C1=O` [Example 1414] ({CH2CO}-FWD[NHexGly]Y[Nle]NR[Tic][Ahp(2)]PVDCG-NH2; thioether N-14), the pIC50 was 7.91.
The figure for `CCCCCCN1CC(=O)N[C@@H](Cc2ccc(O)cc2)C(=O)N[C@@H](CCCC)C(=O)N[C@@H](CC(N)=O)C(=O)N[C@@H](CCCNC(=N)N)C(=O)N2Cc3ccccc3C[C@H]2C(=O)N[C@@H](CCCCC)C(=O)N2CCC[C@H]2C(=O)N[C@@H](C(C)C)C(=O)N[C@@H](CO)C(=O)N[C@H](C(=O)NCC(N)=O)CSCC(=O)N[C@@H](Cc2ccccc2)C(=O)N[C@@H](Cc2c[nH]c3ccccc23)C(=O)N[C@@H](CC(=O)O)C1=O` [Example 1415] ({CH2CO}-FWD[NHexGly]Y[Nle]NR[Tic][Ahp(2)]PVSCG-NH2; thioether N-14) is 7.74; for `CCCCCCN1CC(=O)N[C@@H](Cc2ccc(O)cc2)C(=O)N[C@@H](CC(C)C)C(=O)NCC(=O)N[C@@H](CCCNC(=N)N)C(=O)N[C@@H](Cc2ccc(O)cc2)C(=O)N[C@@H](CCCCC)C(=O)N2CCC[C@H]2C(=O)N[C@@H](C(C)C)C(=O)N[C@@H](CC(=O)O)C(=O)N[C@H](C(=O)NCC(N)=O)CSCC(=O)N[C@@H](Cc2ccccc2)C(=O)N[C@@H](Cc2c[nH]c3ccccc23)C(=O)N[C@@H](CC(=O)O)C1=O` [Example 1416] ({CH2CO}-FWD[NHexGly]YLGRY[Ahp(2)]PVDCG-NH2; thioether N-14) it is 7.29.
As to `CCCCCCN1CC(=O)N[C@@H](Cc2ccc(O)cc2)C(=O)N[C@@H](CC(C)C)C(=O)NCC(=O)N[C@@H](CCCNC(=N)N)C(=O)N[C@@H](Cc2ccc(O)cc2)C(=O)N[C@@H](CCCCC)C(=O)N2CCC[C@H]2C(=O)N[C@@H](C(C)C)C(=O)N[C@@H](CC(=O)O)C(=O)N[C@H](C(=O)NCC(=O)O)CSCC(=O)N[C@@H](Cc2ccccc2)C(=O)N[C@@H](Cc2c[nH]c3ccccc23)C(=O)N[C@@H](CC(=O)O)C1=O` [Example 1417] ({CH2CO}-FWD[NHexGly]YLGRY[Ahp(2)]PVDCG-OH; thioether N-14), the pIC50 was 7.60.
